Measurements taken from ChEMBL document CHEMBL1141886, “QSAR study on the antibacterial activity of some sulfa drugs: building blockers of Mannich bases” (2005).

Legend:
Format in all cases: functional
Bacillus subtilis [1] = assay: Antibacterial activity of compound against Bacillus subtilis at 80 ug/mL expressed as zone of inhibition
Bacillus subtilis [2] = assay: Antibacterial activity of compound against Bacillus subtilis at 20 ug/mL expressed as zone of inhibition
Escherichia coli [3] = assay: Antibacterial activity of compound against Escherichia coli at 10 ug/mL expressed as zone of inhibition
Klebsiella pneumoniae [4] = assay: Antibacterial activity of compound against Klebsiella pneumoniae at 10 ug/mL expressed as zone of inhibition
Bacillus subtilis [5] = assay: Antibacterial activity of compound against Bacillus subtilis at 10 ug/mL expressed as zone of inhibition
Klebsiella pneumoniae [6] = assay: Antibacterial activity of compound against Klebsiella pneumoniae at 80 ug/mL expressed as zone of inhibition
Escherichia coli [7] = assay: Antibacterial activity of compound against Escherichia coli at 40 ug/mL expressed as zone of inhibition
Escherichia coli [8] = assay: Antibacterial activity of compound against Escherichia coli at 80 ug/mL expressed as zone of inhibition
Bacillus subtilis [9] = assay: Antibacterial activity of compound against Bacillus subtilis at 40 ug/mL expressed as zone of inhibition
Escherichia coli [10] = assay: Antibacterial activity of compound against Escherichia coli at 20 ug/mL expressed as zone of inhibition
Klebsiella pneumoniae [11] = assay: Antibacterial activity of compound against Klebsiella pneumoniae at 20 ug/mL expressed as zone of inhibition
Klebsiella pneumoniae [12] = assay: Antibacterial activity of compound against Klebsiella pneumoniae at 40 ug/mL expressed as zone of inhibition

## Nc1ccc(S(=O)(=O)Nc2ncccn2)cc1 [SULFADIAZINE]
Bacillus subtilis [1]
  Zone of inhibition: 25.93 mm
Bacillus subtilis [2]
  Zone of inhibition: 27.23 mm
Escherichia coli [3]
  Zone of inhibition: 9.7 mm
Klebsiella pneumoniae [4]
  Zone of inhibition: 27.03 mm
Bacillus subtilis [5]
  Zone of inhibition: 20.86 mm
Klebsiella pneumoniae [6]
  Zone of inhibition: 25.63 mm
Escherichia coli [7]
  Zone of inhibition: 21.2 mm
Escherichia coli [8]
  Zone of inhibition: 24.5 mm
Bacillus subtilis [9]
  Zone of inhibition: 26.36 mm
Escherichia coli [10]
  Zone of inhibition: 17.2 mm
Klebsiella pneumoniae [11]
  Zone of inhibition: 29.23 mm
Klebsiella pneumoniae [12]
  Zone of inhibition: 29.53 mm

## N=C(N)NS(=O)(=O)c1ccc(N)cc1 [SULFAGUANIDINE]
Bacillus subtilis [1]
  Zone of inhibition: 21.76 mm
Bacillus subtilis [2]
  Zone of inhibition: 10.9 mm
Bacillus subtilis [5]
  Zone of inhibition: 11.23 mm
Bacillus subtilis [9]
  Zone of inhibition: 17.9 mm

## Cc1cc(C)nc(NS(=O)(=O)c2ccc(N)cc2)n1 [SULFAMETHAZINE]
Bacillus subtilis [1]
  Zone of inhibition: 22.08 mm
Bacillus subtilis [2]
  Zone of inhibition: 19.96 mm
Escherichia coli [3]
  Zone of inhibition: 15.1 mm
Bacillus subtilis [5]
  Zone of inhibition: 15.4 mm
Escherichia coli [7]
  Zone of inhibition: 18.8 mm
Escherichia coli [8]
  Zone of inhibition: 18.56 mm
Bacillus subtilis [9]
  Zone of inhibition: 21.76 mm
Escherichia coli [10]
  Zone of inhibition: 16.9 mm

## Cc1nnc(NS(=O)(=O)c2ccc(N)cc2)s1 [SULFAMETHIZOLE]
Bacillus subtilis [1]
  Zone of inhibition: 20.5 mm
Bacillus subtilis [2]
  Zone of inhibition: 19.13 mm
Escherichia coli [3]
  Zone of inhibition: 16.2 mm
Klebsiella pneumoniae [4]
  Zone of inhibition: 30.3 mm
Bacillus subtilis [5]
  Zone of inhibition: 18.06 mm
Klebsiella pneumoniae [6]
  Zone of inhibition: 27.76 mm
Escherichia coli [7]
  Zone of inhibition: 22.2 mm
Escherichia coli [8]
  Zone of inhibition: 25.5 mm
Bacillus subtilis [9]
  Zone of inhibition: 19.46 mm
Escherichia coli [10]
  Zone of inhibition: 17.43 mm
Klebsiella pneumoniae [11]
  Zone of inhibition: 29.86 mm
Klebsiella pneumoniae [12]
  Zone of inhibition: 29.6 mm

## Cc1cc(NS(=O)(=O)c2ccc(N)cc2)no1 [SULFAMETHOXAZOLE]
Bacillus subtilis [1]
  Zone of inhibition: 27.9 mm
Bacillus subtilis [2]
  Zone of inhibition: 25.46 mm
Escherichia coli [3]
  Zone of inhibition: 19.63 mm
Klebsiella pneumoniae [4]
  Zone of inhibition: 11.63 mm
Bacillus subtilis [5]
  Zone of inhibition: 22.8 mm
Klebsiella pneumoniae [6]
  Zone of inhibition: 26.46 mm
Escherichia coli [7]
  Zone of inhibition: 23.23 mm
Escherichia coli [8]
  Zone of inhibition: 24.03 mm
Bacillus subtilis [9]
  Zone of inhibition: 27.43 mm
Escherichia coli [10]
  Zone of inhibition: 22.93 mm
Klebsiella pneumoniae [11]
  Zone of inhibition: 14.92 mm
Klebsiella pneumoniae [12]
  Zone of inhibition: 22.43 mm

## Nc1ccc(S(N)(=O)=O)cc1 [SULFANILAMIDE]
Escherichia coli [3]
  Zone of inhibition: 20.43 mm
Escherichia coli [7]
  Zone of inhibition: 22.86 mm
Escherichia coli [8]
  Zone of inhibition: 25.55 mm
Escherichia coli [10]
  Zone of inhibition: 22.3 mm
